# How the values were obtained:
# Assay in all cases: relative viability (nuclei count vs DMSO), 5 days (fraction); higher = more cells survive
# NCI-H2126 = system: NCI-H2126
# Procedure, shortened: (§1)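 Each reported value is a median over duplicate plates. It expresses relative viability: treated-well nuclei count divided by vehicle-well nuclei count. Lung cancer cell lines in 1536-well plates were dosed by pin tool a day after seeding, alone with one drug or with a fixed anchor-drug dose plus five library-drug doses (not always all listed) in √10 steps, and nuclei were counted after 5 days.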
# LCLC-103H = system: LCLC-103H
# Procedure, shortened: as §1
# NCI-H1993 = system: NCI-H1993
# Procedure, shortened: as §1
# EMC-BAC-2 = system: EMC-BAC-2
# Procedure, shortened: as §1
# NCI-H3122 = system: NCI-H3122
# Procedure, shortened: as §1
# NCI-H23 = system: NCI-H23
# Procedure, shortened: as §1
# NCI-H596 = system: NCI-H596
# Procedure, shortened: as §1
# NCI-H650 = system: NCI-H650
# Procedure, shortened: as §1
# LOU-NH91 = system: LOU-NH91
# Procedure, shortened: as §1
# NCI-H647 = system: NCI-H647
# Procedure, shortened: as §1
# HARA = system: HARA
# Procedure, shortened: as §1
# NCI-H838 = system: NCI-H838
# Procedure, shortened: as §1
# 201T = system: 201T
# Procedure, shortened: as §1
# NCI-H2087 = system: NCI-H2087
# Procedure, shortened: as §1
# NCI-H441 = system: NCI-H441
# Procedure, shortened: as §1
# NCI-H2347 = system: NCI-H2347
# Procedure, shortened: as §1
# NCI-H727 = system: NCI-H727
# Procedure, shortened: as §1
# NCI-H1395 = system: NCI-H1395
# Procedure, shortened: as §1
# NCI-H522 = system: NCI-H522
# Procedure, shortened: as §1
# NCI-H2023 = system: NCI-H2023
# Procedure, shortened: as §1
# BEN = system: BEN
# Procedure, shortened: as §1
# HCC-44 = system: HCC-44
# Procedure, shortened: as §1
smiles,measurement,setting,value
CC(=O)O[C@@]12CO[C@@H]1C[C@H](O)[C@@]1(C)C(=O)[C@H](O)C3=C(C)[C@@H](OC(=O)[C@H](O)[C@@H](NC(=O)OC(C)(C)C)c4ccccc4)C[C@@](O)([C@@H](OC(=O)c4ccccc4)[C@H]21)C3(C)C [Docetaxel] + O=C(CCCCCCC(=O)Nc1ccccc1)NO [Vorinostat] (partner 1 µM),relative viability,NCI-H2126; first compound 0.0002 µM,0.783
same,relative viability,NCI-H2126; first compound 0.000632 µM,0.577
same,relative viability,NCI-H2126; first compound 0.002 µM,0.312
same,relative viability,NCI-H2126; first compound 0.006325 µM,0.337
same,relative viability,LCLC-103H; first compound 0.0002 µM,0.703
same,relative viability,LCLC-103H; first compound 0.000632 µM,0.695
same,relative viability,LCLC-103H; first compound 0.002 µM,0.513
same,relative viability,LCLC-103H; first compound 0.006325 µM,0.604
same,relative viability,LCLC-103H; first compound 0.02 µM,0.47
same,relative viability,NCI-H1993; first compound 0.0002 µM,0.594
same,relative viability,NCI-H1993; first compound 0.000632 µM,0.499
same,relative viability,NCI-H1993; first compound 0.002 µM,0.376
same,relative viability,NCI-H1993; first compound 0.006325 µM,0.392
same,relative viability,NCI-H1993; first compound 0.02 µM,0.246
same,relative viability,EMC-BAC-2; first compound 0.0002 µM,0.388
same,relative viability,EMC-BAC-2; first compound 0.000632 µM,0.293
same,relative viability,EMC-BAC-2; first compound 0.002 µM,0.262
same,relative viability,EMC-BAC-2; first compound 0.006325 µM,0.224
same,relative viability,EMC-BAC-2; first compound 0.02 µM,0.171
same,relative viability,NCI-H3122; first compound 0.0002 µM,0.909
same,relative viability,NCI-H3122; first compound 0.000632 µM,0.95
same,relative viability,NCI-H3122; first compound 0.002 µM,0.487
same,relative viability,NCI-H3122; first compound 0.006325 µM,0.22
same,relative viability,NCI-H3122; first compound 0.02 µM,0.126
same,relative viability,NCI-H23; first compound 0.0002 µM,0.55
same,relative viability,NCI-H23; first compound 0.000632 µM,0.305
same,relative viability,NCI-H23; first compound 0.002 µM,0.165
same,relative viability,NCI-H23; first compound 0.006325 µM,0.155
same,relative viability,NCI-H23; first compound 0.02 µM,0.0848
same,relative viability,NCI-H596; first compound 0.0002 µM,0.639
same,relative viability,NCI-H596; first compound 0.000632 µM,0.46
same,relative viability,NCI-H596; first compound 0.002 µM,0.393
same,relative viability,NCI-H596; first compound 0.006325 µM,0.307
same,relative viability,NCI-H596; first compound 0.02 µM,0.144
same,relative viability,NCI-H650; first compound 0.0002 µM,0.389
same,relative viability,NCI-H650; first compound 0.000632 µM,0.326
same,relative viability,NCI-H650; first compound 0.002 µM,0.262
same,relative viability,NCI-H650; first compound 0.006325 µM,0.2
same,relative viability,NCI-H650; first compound 0.02 µM,0.171
same,relative viability,LOU-NH91; first compound 0.0002 µM,0.873
same,relative viability,LOU-NH91; first compound 0.000632 µM,0.628
same,relative viability,LOU-NH91; first compound 0.002 µM,0.436
same,relative viability,LOU-NH91; first compound 0.006325 µM,0.397
same,relative viability,LOU-NH91; first compound 0.02 µM,0.347
same,relative viability,NCI-H647; first compound 0.0002 µM,0.486
same,relative viability,NCI-H647; first compound 0.000632 µM,0.32
same,relative viability,NCI-H647; first compound 0.002 µM,0.196
same,relative viability,NCI-H647; first compound 0.006325 µM,0.14
same,relative viability,NCI-H647; first compound 0.02 µM,0.082
same,relative viability,HARA; first compound 0.0002 µM,0.5
same,relative viability,HARA; first compound 0.000632 µM,0.219
same,relative viability,HARA; first compound 0.002 µM,0.148
same,relative viability,HARA; first compound 0.006325 µM,0.215
same,relative viability,HARA; first compound 0.02 µM,0.0839
same,relative viability,NCI-H838; first compound 0.0002 µM,0.623
same,relative viability,NCI-H838; first compound 0.000632 µM,0.385
same,relative viability,NCI-H838; first compound 0.002 µM,0.328
same,relative viability,NCI-H838; first compound 0.006325 µM,0.208
same,relative viability,NCI-H838; first compound 0.02 µM,0.16
same,relative viability,201T; first compound 0.0002 µM,0.885
same,relative viability,201T; first compound 0.000632 µM,0.932
same,relative viability,201T; first compound 0.002 µM,0.516
same,relative viability,201T; first compound 0.006325 µM,0.478
same,relative viability,201T; first compound 0.02 µM,0.291
same,relative viability,NCI-H2087; first compound 0.0002 µM,0.663
same,relative viability,NCI-H2087; first compound 0.000632 µM,0.203
same,relative viability,NCI-H2087; first compound 0.002 µM,0.139
same,relative viability,NCI-H2087; first compound 0.006325 µM,0.115
same,relative viability,NCI-H2087; first compound 0.02 µM,0.103
same,relative viability,NCI-H441; first compound 0.0002 µM,0.713
same,relative viability,NCI-H441; first compound 0.000632 µM,0.53
same,relative viability,NCI-H441; first compound 0.002 µM,0.223
same,relative viability,NCI-H441; first compound 0.006325 µM,0.219
same,relative viability,NCI-H441; first compound 0.02 µM,0.165
same,relative viability,NCI-H2347; first compound 0.0002 µM,0.726
same,relative viability,NCI-H2347; first compound 0.000632 µM,0.554
same,relative viability,NCI-H2347; first compound 0.002 µM,0.418
same,relative viability,NCI-H2347; first compound 0.006325 µM,0.434
same,relative viability,NCI-H2347; first compound 0.02 µM,0.33
same,relative viability,NCI-H727; first compound 0.0002 µM,1.08
same,relative viability,NCI-H727; first compound 0.000632 µM,1.13
same,relative viability,NCI-H727; first compound 0.002 µM,1.2
same,relative viability,NCI-H727; first compound 0.006325 µM,0.748
same,relative viability,NCI-H727; first compound 0.02 µM,0.67
same,relative viability,NCI-H1395; first compound 0.0002 µM,0.672
same,relative viability,NCI-H1395; first compound 0.000632 µM,0.601
same,relative viability,NCI-H1395; first compound 0.002 µM,0.462
same,relative viability,NCI-H1395; first compound 0.006325 µM,0.375
same,relative viability,NCI-H1395; first compound 0.02 µM,0.239
same,relative viability,NCI-H522; first compound 0.0002 µM,0.852
same,relative viability,NCI-H522; first compound 0.000632 µM,0.899
same,relative viability,NCI-H522; first compound 0.002 µM,0.713
same,relative viability,NCI-H522; first compound 0.006325 µM,0.516
same,relative viability,NCI-H522; first compound 0.02 µM,0.344
same,relative viability,NCI-H2023; first compound 0.0002 µM,0.466
same,relative viability,NCI-H2023; first compound 0.002 µM,0.101
same,relative viability,NCI-H2023; first compound 0.006325 µM,0.0951
same,relative viability,NCI-H2023; first compound 0.02 µM,0.0577
same,relative viability,BEN; first compound 0.0002 µM,0.526
same,relative viability,BEN; first compound 0.000632 µM,0.526
same,relative viability,BEN; first compound 0.002 µM,0.337
same,relative viability,BEN; first compound 0.006325 µM,0.373
same,relative viability,BEN; first compound 0.02 µM,0.299
same,relative viability,HCC-44; first compound 0.0002 µM,0.994
same,relative viability,HCC-44; first compound 0.000632 µM,1.14
same,relative viability,HCC-44; first compound 0.002 µM,0.861
same,relative viability,HCC-44; first compound 0.006325 µM,0.515
same,relative viability,HCC-44; first compound 0.02 µM,0.493
